Assay results published in paper PMC8400920, “Metabolism of Diterpenoids Derived from the Bark of Cinnamomum cassia in Human Liver Microsomes” (Pharmaceutics, 2021).
“Also recorded” adds a separate entry of the source.

Tests used:
Assay in all cases: AHC metabolism by recombinant cDNA-expressed CYP isoform
Format in all cases: in vitro ADME
CYP1A1 = target: T1, CYP1A1 (Homo sapiens, UniProt P04798); conditions: 10 µM AHC, 10 pmol recombinant CYP, NGS, 37 °C, 60 min
T1 construct: purchased Corning Gentest
T1 sequence (P04798 1-512): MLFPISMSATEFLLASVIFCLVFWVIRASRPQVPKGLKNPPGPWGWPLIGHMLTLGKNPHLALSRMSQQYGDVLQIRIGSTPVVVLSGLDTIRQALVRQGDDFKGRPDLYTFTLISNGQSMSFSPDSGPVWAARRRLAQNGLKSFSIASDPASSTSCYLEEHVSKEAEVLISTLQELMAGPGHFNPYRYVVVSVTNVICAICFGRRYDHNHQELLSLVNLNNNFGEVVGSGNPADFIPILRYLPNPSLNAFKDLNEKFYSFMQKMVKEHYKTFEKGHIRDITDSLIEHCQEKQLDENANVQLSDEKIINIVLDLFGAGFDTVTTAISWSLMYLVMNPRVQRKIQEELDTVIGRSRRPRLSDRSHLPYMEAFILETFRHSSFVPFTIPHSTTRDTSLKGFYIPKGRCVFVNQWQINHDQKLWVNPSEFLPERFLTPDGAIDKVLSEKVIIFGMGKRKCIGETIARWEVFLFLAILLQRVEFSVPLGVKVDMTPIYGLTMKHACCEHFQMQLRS
Procedure: (§1) To identify the metabolic enzymes for AHC, 10 µM AHC was incubated with 10 pmol of human recombinant cDNA-expressed CYP isoforms (CYP1A1, 1A2, 2A6, 2B6, 2C8, 2C9, 2C19, 2D6, 2E1, 3A4, and 3A5) in the presence of 0.1 M potassium phosphate buffer (pH 7.4). The reaction was initiated by adding 100 µL of NGS at 37 °C for 60 min. Then, the mixture was suspended by adding 400 µL of ice-cold 100% ACN. Following centrifugation at 15,700× g for 10 min at 4 °C, the supernatant was transferred to a new tube and evaporated using a speed-vacuum concentrator. Next, the dried sample was diluted with 100 µL of 20% MeOH containing 0.1% formic acid, and a 5 µL aliquot was injected into a C18 column for LC–MS/MS analysis.
(§2) To identify the CYP isoforms involved in AHC metabolism, AHC (10 µM) was incubated with eleven cDNA-expressed recombinant CYP isoforms (CYP1A1, CYP1A2, CYP2A6, CYP2B6, CYP2C8, CYP2C9, CYP2C19, CYP2D6, CYP2E1, CYP3A4, and CYP3A5) in the presence of the NGS. […] However, the metabolites of AHC were not observed from reactions with other CYPs. Thus, in the metabolism of AHC in HLMs, CYP3A4 was involved as the main enzyme, and four types of metabolites were generated.

CYP1A2 = target: T2, CYP1A2 (Homo sapiens, UniProt P05177); conditions: 10 µM AHC, 10 pmol recombinant CYP, NGS, 37 °C, 60 min
T2 construct: purchased Corning Gentest
T2 sequence (P05177 1-516): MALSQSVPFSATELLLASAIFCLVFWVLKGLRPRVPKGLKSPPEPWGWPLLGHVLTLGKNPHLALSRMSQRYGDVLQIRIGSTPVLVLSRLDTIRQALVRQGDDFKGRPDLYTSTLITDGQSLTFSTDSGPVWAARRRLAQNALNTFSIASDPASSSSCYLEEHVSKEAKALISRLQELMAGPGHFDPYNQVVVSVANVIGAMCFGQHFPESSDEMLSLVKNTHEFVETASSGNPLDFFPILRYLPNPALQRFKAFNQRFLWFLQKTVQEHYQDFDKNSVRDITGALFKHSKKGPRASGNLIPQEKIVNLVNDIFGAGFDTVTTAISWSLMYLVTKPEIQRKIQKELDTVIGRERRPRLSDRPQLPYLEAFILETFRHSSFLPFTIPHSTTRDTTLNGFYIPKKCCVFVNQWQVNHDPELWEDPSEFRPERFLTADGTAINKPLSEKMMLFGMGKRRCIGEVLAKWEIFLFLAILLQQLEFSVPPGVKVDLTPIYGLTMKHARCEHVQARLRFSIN
Procedure: as §1, §2

CYP2A6 = target: T3, CYP2A6 (Homo sapiens, UniProt P11509); conditions: 10 µM AHC, 10 pmol recombinant CYP, NGS, 37 °C, 60 min
T3 construct: purchased Corning Gentest
T3 sequence (P11509 1-494): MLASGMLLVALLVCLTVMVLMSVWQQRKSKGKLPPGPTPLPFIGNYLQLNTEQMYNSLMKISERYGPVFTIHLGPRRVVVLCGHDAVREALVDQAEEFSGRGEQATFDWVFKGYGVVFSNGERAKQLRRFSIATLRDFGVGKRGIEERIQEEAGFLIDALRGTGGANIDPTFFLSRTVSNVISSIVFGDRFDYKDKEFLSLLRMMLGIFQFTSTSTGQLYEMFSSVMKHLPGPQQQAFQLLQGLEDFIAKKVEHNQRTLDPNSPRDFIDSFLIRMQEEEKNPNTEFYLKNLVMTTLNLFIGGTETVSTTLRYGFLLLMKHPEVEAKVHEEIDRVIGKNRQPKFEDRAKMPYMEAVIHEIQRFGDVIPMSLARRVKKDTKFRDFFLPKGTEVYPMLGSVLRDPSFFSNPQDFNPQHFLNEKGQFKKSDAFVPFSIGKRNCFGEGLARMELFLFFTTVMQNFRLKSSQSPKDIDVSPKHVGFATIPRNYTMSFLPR
Procedure: as §1, §2

CYP2B6 = target: T4, CYP2B6 (Homo sapiens, UniProt P20813); conditions: 10 µM AHC, 10 pmol recombinant CYP, NGS, 37 °C, 60 min
T4 construct: purchased Corning Gentest
T4 sequence (P20813 1-491): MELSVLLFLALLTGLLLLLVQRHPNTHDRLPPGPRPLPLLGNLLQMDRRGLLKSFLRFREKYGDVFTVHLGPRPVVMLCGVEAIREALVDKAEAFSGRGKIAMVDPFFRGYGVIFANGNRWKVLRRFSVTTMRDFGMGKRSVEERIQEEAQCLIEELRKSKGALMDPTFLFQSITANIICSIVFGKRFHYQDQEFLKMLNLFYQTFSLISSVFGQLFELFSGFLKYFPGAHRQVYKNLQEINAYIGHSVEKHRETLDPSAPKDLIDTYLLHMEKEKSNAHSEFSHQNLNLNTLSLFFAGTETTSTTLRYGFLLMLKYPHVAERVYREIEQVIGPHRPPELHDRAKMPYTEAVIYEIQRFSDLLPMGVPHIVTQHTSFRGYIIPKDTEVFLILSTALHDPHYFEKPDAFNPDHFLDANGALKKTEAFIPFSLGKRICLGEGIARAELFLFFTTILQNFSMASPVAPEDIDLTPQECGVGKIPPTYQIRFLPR
Procedure: as §1, §2

CYP2C19 = target: T5, CYP2C19 (Homo sapiens, UniProt P33261); conditions: 10 µM AHC, 10 pmol recombinant CYP, NGS, 37 °C, 60 min
T5 construct: purchased Corning Gentest
T5 sequence (P33261 whole entry): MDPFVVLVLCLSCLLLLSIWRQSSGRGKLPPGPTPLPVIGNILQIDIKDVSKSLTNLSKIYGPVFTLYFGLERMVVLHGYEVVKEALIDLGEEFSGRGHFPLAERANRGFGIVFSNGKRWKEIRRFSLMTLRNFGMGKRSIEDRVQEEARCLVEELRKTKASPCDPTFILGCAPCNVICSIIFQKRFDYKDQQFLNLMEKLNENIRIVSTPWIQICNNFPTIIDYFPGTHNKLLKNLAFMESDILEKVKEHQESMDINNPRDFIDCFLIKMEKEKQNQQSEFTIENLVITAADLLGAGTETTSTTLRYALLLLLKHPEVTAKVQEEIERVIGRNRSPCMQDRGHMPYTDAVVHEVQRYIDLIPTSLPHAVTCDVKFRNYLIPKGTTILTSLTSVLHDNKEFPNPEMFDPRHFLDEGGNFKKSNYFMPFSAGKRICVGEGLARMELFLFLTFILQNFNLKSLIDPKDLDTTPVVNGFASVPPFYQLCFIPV
Procedure: as §1, §2

CYP2D6 = target: T6, CYP2D6 (Homo sapiens, UniProt P10635); conditions: 10 µM AHC, 10 pmol recombinant CYP, NGS, 37 °C, 60 min
T6 construct: purchased Corning Gentest
T6 sequence (P10635 whole entry): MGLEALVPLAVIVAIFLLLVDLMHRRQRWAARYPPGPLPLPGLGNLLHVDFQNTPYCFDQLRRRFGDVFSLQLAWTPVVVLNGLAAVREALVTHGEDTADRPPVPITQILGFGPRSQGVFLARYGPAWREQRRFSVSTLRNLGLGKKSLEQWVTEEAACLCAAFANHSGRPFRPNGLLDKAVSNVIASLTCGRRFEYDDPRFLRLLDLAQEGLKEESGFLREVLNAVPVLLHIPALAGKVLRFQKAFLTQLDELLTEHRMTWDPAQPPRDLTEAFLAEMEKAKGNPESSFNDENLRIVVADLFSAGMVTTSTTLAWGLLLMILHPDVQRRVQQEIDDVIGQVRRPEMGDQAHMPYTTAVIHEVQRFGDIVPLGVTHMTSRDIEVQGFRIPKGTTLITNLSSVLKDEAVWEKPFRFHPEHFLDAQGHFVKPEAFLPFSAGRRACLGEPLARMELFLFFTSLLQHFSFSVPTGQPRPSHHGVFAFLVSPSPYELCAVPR
Procedure: as §1, §2

CYP2E1 = target: T7, CYP2E1 (Homo sapiens, UniProt P05181); conditions: 10 µM AHC, 10 pmol recombinant CYP, NGS, 37 °C, 60 min
T7 construct: purchased Corning Gentest
T7 sequence (P05181 whole entry): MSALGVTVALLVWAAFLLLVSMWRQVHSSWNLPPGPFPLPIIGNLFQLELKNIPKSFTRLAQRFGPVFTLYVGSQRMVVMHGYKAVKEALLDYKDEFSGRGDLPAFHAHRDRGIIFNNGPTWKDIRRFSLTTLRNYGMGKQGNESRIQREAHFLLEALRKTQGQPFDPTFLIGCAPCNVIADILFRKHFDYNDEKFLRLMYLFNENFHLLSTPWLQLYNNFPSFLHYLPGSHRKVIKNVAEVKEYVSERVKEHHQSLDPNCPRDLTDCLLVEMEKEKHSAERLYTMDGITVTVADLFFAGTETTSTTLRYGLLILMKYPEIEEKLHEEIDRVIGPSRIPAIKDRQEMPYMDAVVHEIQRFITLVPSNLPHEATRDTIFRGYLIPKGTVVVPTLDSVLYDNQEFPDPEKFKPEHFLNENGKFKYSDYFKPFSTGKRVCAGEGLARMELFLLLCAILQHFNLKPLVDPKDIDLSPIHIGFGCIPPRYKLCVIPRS
Procedure: as §1, §2

CYP3A4 = target: T8, CYP3A4 (Homo sapiens, UniProt P08684); conditions: 10 µM AHC, 10 pmol recombinant CYP3A4, NGS, 37 °C, 60 min
T8 construct: purchased Corning Gentest
T8 sequence (P08684 whole entry): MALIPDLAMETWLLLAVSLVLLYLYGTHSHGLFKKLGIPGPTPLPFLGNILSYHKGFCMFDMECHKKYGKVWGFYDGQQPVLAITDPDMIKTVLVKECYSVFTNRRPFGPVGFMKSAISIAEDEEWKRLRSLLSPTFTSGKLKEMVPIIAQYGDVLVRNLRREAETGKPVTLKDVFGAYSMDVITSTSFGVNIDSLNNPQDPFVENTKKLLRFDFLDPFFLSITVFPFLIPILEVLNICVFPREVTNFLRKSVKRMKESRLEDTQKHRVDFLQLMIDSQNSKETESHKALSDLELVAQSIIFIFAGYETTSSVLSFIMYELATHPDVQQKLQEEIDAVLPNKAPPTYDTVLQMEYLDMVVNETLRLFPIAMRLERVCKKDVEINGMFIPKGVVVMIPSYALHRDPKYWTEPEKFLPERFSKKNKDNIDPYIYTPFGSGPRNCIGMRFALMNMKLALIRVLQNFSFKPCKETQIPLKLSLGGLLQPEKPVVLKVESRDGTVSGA
Procedure: as §1, §2

## CC(=O)O[C@@H]1[C@@H](C)CC[C@]2(O)[C@]3(C)CC(=O)O[C@]12[C@@]1(O)C(C)=C(C(C)C)C[C@@]31O [AHC, anhydrocinnzeylanine]
CYP1A1
  metabolites of AHC from reaction with CYP1A1: not observed
CYP1A2
  metabolites of AHC from reaction with CYP1A2: not observed
CYP2A6
  metabolites of AHC from reaction with CYP2A6: not observed
CYP2B6
  metabolites of AHC from reaction with CYP2B6: not observed
CYP2C19
  metabolites of AHC from reaction with CYP2C19: not observed
CYP2D6
  metabolites of AHC from reaction with CYP2D6: not observed
CYP2E1
  metabolites of AHC from reaction with CYP2E1: not observed
CYP3A4
  metabolism of AHC by CYP3A4: major CYP responsible for the metabolism of AHC; also recorded: predominantly metabolized by CYP3A4
